Data from US12077503B2, “Substituted cyclic amides and their use as herbicides” (FMC CORPORATION, priority 2015, dated 2024).

Legend:
Assay in all cases: Test C preemergence
Format in all cases: in vivo
corn (Zea mays) = conditions: for Plant response rating, Corn: scale 0 to 100, 0 no effect, 100 complete control
How it was run: (§1)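 Preemergence application to seeds in loam/sand soil, or foliar (postemergence) application to plants 2–18 cm tall in peat moss/vermiculite medium; surfactant-containing non-phytotoxic solvent vehicle; greenhouse. Visual injury vs controls at 13–15 d; 0 = no effect, 100 = complete control.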

[1] = tested on: blackgrass (Alopecurus myosuroides); conditions: for Plant response rating, Blackgrass: scale 0 to 100, 0 no effect, 100 complete control
How it was run: as §1

[2] = tested on: oilseed rape (Brassica napus); conditions: for Plant response rating, Oilseed Rape: scale 0 to 100, 0 no effect, 100 complete control
How it was run: as §1

[3] = tested on: barnyardgrass (Echinochloa crus-galli); conditions: for Plant response rating, Barnyardgrass: scale 0 to 100, 0 no effect, 100 complete control
How it was run: as §1

[4] = tested on: pigweed (Amaranthus retroflexus); conditions: for Plant response rating, Pigweed: scale 0 to 100, 0 no effect, 100 complete control
How it was run: as §1

[5] = tested on: ragweed (common ragweed, Ambrosia elatior); conditions: for Plant response rating, Ragweed: scale 0 to 100, 0 no effect, 100 complete control
How it was run: as §1

[6] = tested on: velvetleaf (Abutilon theophrasti); conditions: for Plant response rating, Velvetleaf: scale 0 to 100, 0 no effect, 100 complete control
How it was run: as §1

[7] = tested on: Galium (catchweed bedstraw, Galium aparine); conditions: for Plant response rating, Galium: scale 0 to 100, 0 no effect, 100 complete control
How it was run: as §1

[8] = tested on: nutsedge, yellow (yellow nutsedge, Cyperus esculentus); conditions: for Plant response rating, Nutsedge, Yellow: scale 0 to 100, 0 no effect, 100 complete control
How it was run: as §1

[9] = tested on: wheat (winter wheat, Triticum aestivum); conditions: for Plant response rating, Wheat: scale 0 to 100, 0 no effect, 100 complete control
How it was run: as §1

[10] = tested on: morningglory (Ipomoea coccinea); conditions: for Plant response rating, Morningglory: scale 0 to 100, 0 no effect, 100 complete control
How it was run: as §1

soybean (Glycine max) = conditions: for Plant response rating, Soybean: scale 0 to 100, 0 no effect, 100 complete control
How it was run: as §1

[11] = tested on: ryegrass, Italian (Italian ryegrass, Lolium multiflorum); conditions: for Plant response rating, Ryegrass, Italian: scale 0 to 100, 0 no effect, 100 complete control
How it was run: as §1

[12] = tested on: lambsquarters (Chenopodium album); conditions: for Plant response rating, Lambsquarters: scale 0 to 100, 0 no effect, 100 complete control
How it was run: as §1

[13] = tested on: foxtail, giant (giant foxtail, Setaria faberii); conditions: for Plant response rating, Foxtail, Giant: scale 0 to 100, 0 no effect, 100 complete control
How it was run: as §1

[14] = tested on: waterhemp (common waterhemp, Amaranthus rudis); conditions: for Plant response rating, Waterhemp: scale 0 to 100, 0 no effect, 100 complete control
How it was run: as §1

[15] = tested on: crabgrass, large (large crabgrass, Digitaria sanguinalis); conditions: for Plant response rating, Crabgrass, Large: scale 0 to 100, 0 no effect, 100 complete control
How it was run: as §1

[16] = 31 g ai/ha, 0 is no effect, 100 is complete control

CN1CC(c2cccc(C(F)(F)F)c2)C(C(=O)Nc2cccc(F)c2F)C1=O (centres unmarked) [Compound 636] was tested, and the “Plant response rating (scale of 0 to 100), Corn” value (corn (Zea mays); [16]) was 60, the “Plant response rating, Corn” value (corn (Zea mays); 62 g ai/ha) was 80 and the “Plant response rating, Corn” value (corn (Zea mays); 125 g ai/ha) was 85. For the same compound, the “Plant response rating, Corn” value (corn (Zea mays); 250 g ai/ha) was 90, the “Plant response rating (scale of 0 to 100), Blackgrass” value [1, 16] was 90 and the “Plant response rating, Blackgrass” value ([1]; 62 g ai/ha) was 85. For the same compound, the “Plant response rating, Blackgrass” value ([1]; 125 g ai/ha) was 90, the “Plant response rating, Blackgrass” value ([1]; 250 g ai/ha) was 90 and the “Plant response rating (scale of 0 to 100), Oilseed Rape” value [2, 16] was 80. For the same compound, the “Plant response rating, Oilseed Rape” value ([2]; 62 g ai/ha) was 60, the “Plant response rating, Oilseed Rape” value ([2]; 125 g ai/ha) was 85 and the “Plant response rating, Oilseed Rape” value ([2]; 250 g ai/ha) was 90. The “Plant response rating (scale of 0 to 100), Barnyardgrass” value [3, 16] was 90, the “Plant response rating, Barnyardgrass” value ([3]; 62 g ai/ha) was 90 and the “Plant response rating, Barnyardgrass” value ([3]; 125 g ai/ha) was 95. The “Plant response rating, Barnyardgrass” value ([3]; 250 g ai/ha) was 95, the “Plant response rating (scale of 0 to 100), Pigweed” value [4, 16] was 60 and the “Plant response rating, Pigweed” value ([4]; 62 g ai/ha) was 70. For the same compound, the “Plant response rating, Pigweed” value ([4]; 125 g ai/ha) was 80, the “Plant response rating, Pigweed” value ([4]; 250 g ai/ha) was 85 and the “Plant response rating (scale of 0 to 100), Ragweed” value [5, 16] was 20. For the same compound, the “Plant response rating, Ragweed” value ([5]; 62 g ai/ha) was 65, the “Plant response rating, Ragweed” value ([5]; 125 g ai/ha) was 65 and the “Plant response rating, Ragweed” value ([5]; 250 g ai/ha) was 80. For the same compound, the “Plant response rating (scale of 0 to 100), Velvetleaf” value [6, 16] was 5, the “Plant response rating, Velvetleaf” value ([6]; 62 g ai/ha) was 50 and the “Plant response rating, Velvetleaf” value ([6]; 125 g ai/ha) was 55. The “Plant response rating, Velvetleaf” value ([6]; 250 g ai/ha) was 55, the “Plant response rating (scale of 0 to 100), Galium” value [7, 16] was 85 and the “Plant response rating, Galium” value ([7]; 62 g ai/ha) was 85. The “Plant response rating, Galium” value ([7]; 125 g ai/ha) was 90, the “Plant response rating, Galium” value ([7]; 250 g ai/ha) was 90 and the “Plant response rating (scale of 0 to 100), Nutsedge, Yellow” value [8, 16] was 0. For the same compound, the “Plant response rating, Nutsedge, Yellow” value ([8]; 62 g ai/ha) was 75, the “Plant response rating, Nutsedge, Yellow” value ([8]; 125 g ai/ha) was 0 and the “Plant response rating, Nutsedge, Yellow” value ([8]; 250 g ai/ha) was 60. The “Plant response rating (scale of 0 to 100), Wheat” value [9, 16] was 35, the “Plant response rating, Wheat” value ([9]; 62 g ai/ha) was 45 and the “Plant response rating, Wheat” value ([9]; 125 g ai/ha) was 65. The “Plant response rating, Wheat” value ([9]; 250 g ai/ha) was 75, the “Plant response rating (scale of 0 to 100), Morningglory” value [10, 16] was 5 and the “Plant response rating, Morningglory” value ([10]; 62 g ai/ha) was 25. For the same compound, the “Plant response rating, Morningglory” value ([10]; 125 g ai/ha) was 35, the “Plant response rating, Morningglory” value ([10]; 250 g ai/ha) was 65 and the “Plant response rating (scale of 0 to 100), Soybean” value (soybean (Glycine max); [16]) was 0. For the same compound, the “Plant response rating, Soybean” value (soybean (Glycine max); 62 g ai/ha) was 75, the “Plant response rating, Soybean” value (soybean (Glycine max); 125 g ai/ha) was 0 and the “Plant response rating, Soybean” value (soybean (Glycine max); 250 g ai/ha) was 0. The “Plant response rating (scale of 0 to 100), Ryegrass, Italian” value [11, 16] was 70, the “Plant response rating, Ryegrass, Italian” value ([11]; 62 g ai/ha) was 30 and the “Plant response rating, Ryegrass, Italian” value ([11]; 125 g ai/ha) was 50. The “Plant response rating, Ryegrass, Italian” value ([11]; 250 g ai/ha) was 90, the “Plant response rating (scale of 0 to 100), Lambsquarters” value [12, 16] was 40 and the “Plant response rating, Lambsquarters” value ([12]; 62 g ai/ha) was 40. The “Plant response rating, Lambsquarters” value ([12]; 125 g ai/ha) was 55, the “Plant response rating, Lambsquarters” value ([12]; 250 g ai/ha) was 65 and the “Plant response rating (scale of 0 to 100), Foxtail, Giant” value [13, 16] was 85. The “Plant response rating, Foxtail, Giant” value ([13]; 62 g ai/ha) was 90, the “Plant response rating, Foxtail, Giant” value ([13]; 125 g ai/ha) was 90 and the “Plant response rating, Foxtail, Giant” value ([13]; 250 g ai/ha) was 90. The “Plant response rating (scale of 0 to 100), Waterhemp” value [14, 16] was 65, the “Plant response rating, Waterhemp” value ([14]; 62 g ai/ha) was 75 and the “Plant response rating, Waterhemp” value ([14]; 125 g ai/ha) was 85. For the same compound, the “Plant response rating, Waterhemp” value ([14]; 250 g ai/ha) was 85, the “Plant response rating (scale of 0 to 100), Crabgrass, Large” value [15, 16] was 95 and the “Plant response rating, Crabgrass, Large” value ([15]; 62 g ai/ha) was 98. The “Plant response rating, Crabgrass, Large” value ([15]; 125 g ai/ha) was 100 and the “Plant response rating, Crabgrass, Large” value ([15]; 250 g ai/ha) was 100.
